Like-named read-outs stand apart in the source and are kept apart here.
Legend:
[1] = tested on: Enterococcus faecalis EFS.201 (ATCC 49452); assay type: cell-based
Outline: (§1)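 Broth microdilution per CLSI M7-A7 in Mueller Hinton broth supplemented with 50 mg/L calcium; 2-fold compound dilutions, 5×10^5 bacteria per well, DMSO ≤1% final, 18-20 h at 37° C with aeration (200 rpm). MIC (μg/mL) = lowest concentration with no visible turbidity (growth: visible turbidity or OD600 ≥0.1).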

[2] = tested on: Enterococcus faecalis EFS.312, Daptomycin resistant mutant (EFA); assay type: cell-based; details: MHBc with 50 mg/L calcium, 18-20 hours at 37° C.
Outline: as §1

[3] = tested on: Enterococcus faecium EFM.14 (ATCC 6569); assay type: cell-based
Outline: as §1

[4] = tested on: Enterococcus faecium EFM.384, Daptomycin resistant mutant (14-A); assay type: cell-based; details: MHBc with 50 mg/L calcium, 18-20 hours at 37° C.
Outline: as §1

[5] = tested on: Staphylococcus aureus SAU.278, Daptomycin resistant mutant (D10); assay type: cell-based; details: MHBc with 50 mg/L calcium, 18-20 hours at 37° C.
Outline: as §1

[6] = tested on: Staphylococcus aureus SAU.399 (ATCC 43300), Methicillin and Oxacillin Resistant; assay type: cell-based
Outline: as §1

[7] = tested on: Staphylococcus aureus SAU.42 (ATCC 29213); assay type: cell-based
Outline: as §1

[8] = MHBc with 50 mg/L calcium, 18-20 hours at 37° C.

Row | SMILES | Efs201 MIC ([1]; ATCC 49452) | Efs312 MIC [2] | Efm14 MIC ([3]; ATCC 6569) | Efm384 MIC [4] | Sa278 MIC [5] | Sa399 MIC ([6]; ATCC 43300) | Sa42 MIC ([7]; ATCC 29213) | C. diff MIC90 (Clostridium difficile) | Efs201 MIC [1, 8] | Efm14 MIC [3, 8] | Sa399 MIC [6, 8] | Sa42 MIC [7, 8]
1 | C[C@H](CC(=O)O)[C@@H]1NC(=O)[C@@H](CO)NC(=O)CNC(=O)[C@H](CC(=O)O)NC(=O)[C@@H](C)NC(=O)[C@H](CC(=O)O)NC(=O)[C@H](CCCN)NC(=O)CNC(=O)[C@@H](NC(=O)[C@H](CC(=O)O)NC(=O)[C@@H](CC(N)=O)NC(=O)[C@H](Cc2c[nH]c3ccccc23)NC(=O)c2cc(-c3ccc(Cl)cc3)cs2)[C@@H](C)OC(=O)[C@H](CC(=O)c2ccccc2N)NC1=O [Compound 70] | >32 µg/mL | >32 µg/mL | >32 µg/mL | >32 µg/mL | >32 µg/mL | 8 µg/mL | 8 µg/mL | 16 µg/mL |  |  |  | 
2 | CC(C)CCCCCCCCCC(=O)N[C@@H](Cc1c[nH]c2ccccc12)C(=O)N[C@H](CC(N)=O)C(=O)N[C@@H](CC(=O)O)C(=O)N[C@@H]1C(=O)NCC(=O)N[C@@H](CCCN)C(=O)N[C@@H](CC(=O)O)C(=O)N[C@H](C)C(=O)N[C@@H](CC(=O)O)C(=O)NCC(=O)N[C@H](CO)C(=O)N[C@@H]([C@H](C)CC(=O)O)C(=O)N[C@@H](CC(=O)c2ccccc2N)C(=O)O[C@@H]1C [Compound 10] | 0.13 µg/mL | >32 µg/mL | 1 µg/mL | 4 µg/mL | 1 µg/mL | 0.25 µg/mL | 0.25 µg/mL | 1 µg/mL |  |  |  | 
3 | CCCCCCC12CCC(C(=O)N[C@@H](Cc3c[nH]c4ccccc34)C(=O)N[C@H](CC(N)=O)C(=O)N[C@@H](CC(=O)O)C(=O)N[C@@H]3C(=O)NCC(=O)N[C@@H](CCCN)C(=O)N[C@@H](CC(=O)O)C(=O)N[C@H](C)C(=O)N[C@@H](CC(=O)O)C(=O)NCC(=O)N[C@H](CO)C(=O)N[C@@H]([C@H](C)CC(=O)O)C(=O)N[C@@H](CC(=O)c4ccccc4N)C(=O)O[C@@H]3C)(CC1)CC2 [Compound 23] | 0.5 µg/mL | 4 µg/mL | 0.5 µg/mL | 4 µg/mL | 1 µg/mL | 0.5 µg/mL | 0.50 µg/mL | 0.5 µg/mL |  |  |  | 
4 | CCCCCCCCCCCCC(=O)N[C@@H](Cc1c[nH]c2ccccc12)C(=O)N[C@H](CC(N)=O)C(=O)N[C@@H](CC(=O)O)C(=O)N[C@@H]1C(=O)NCC(=O)N[C@@H](CCCN)C(=O)N[C@@H](CC(=O)O)C(=O)N[C@H](C)C(=O)N[C@@H](CC(=O)O)C(=O)NCC(=O)N[C@H](CO)C(=O)N[C@@H]([C@H](C)CC(=O)O)C(=O)N[C@@H](CC(=O)c2ccccc2N)C(=O)O[C@@H]1C [Compound 5] | 0.5 µg/mL | 8 µg/mL | 0.5 µg/mL | 8 µg/mL | 2 µg/mL | 0.5 µg/mL | 0.5 µg/mL | 8 µg/mL |  |  |  | 
5 | C[C@H](CC(=O)O)[C@@H]1NC(=O)[C@@H](CO)NC(=O)CNC(=O)[C@H](CC(=O)O)NC(=O)[C@@H](C)NC(=O)[C@H](CC(=O)O)NC(=O)[C@H](CCCN)NC(=O)CNC(=O)[C@@H](NC(=O)[C@H](CC(=O)O)NC(=O)[C@@H](CC(N)=O)NC(=O)[C@H](Cc2c[nH]c3ccccc23)NC(=O)C2CCC(c3ccc(Cl)cc3)CC2)[C@@H](C)OC(=O)[C@H](CC(=O)c2ccccc2N)NC1=O (stereo partly drawn) [Compound 67] | 4 µg/mL | >32 µg/mL | 8 µg/mL | >32 µg/mL | 4 µg/mL | 4 µg/mL | 0.5 µg/mL | 4 µg/mL |  |  |  | 
6 | CCCCCCCCC1CC1C(=O)N[C@@H](Cc1c[nH]c2ccccc12)C(=O)N[C@H](CC(N)=O)C(=O)N[C@@H](CC(=O)O)C(=O)N[C@@H]1C(=O)NCC(=O)N[C@@H](CCCN)C(=O)N[C@@H](CC(=O)O)C(=O)N[C@H](C)C(=O)N[C@@H](CC(=O)O)C(=O)NCC(=O)N[C@H](CO)C(=O)N[C@@H]([C@H](C)CC(=O)O)C(=O)N[C@@H](CC(=O)c2ccccc2N)C(=O)O[C@@H]1C (single isomer, unassigned) [27 isomer II] | 0.5 µg/mL | 32 µg/mL | 1 µg/mL | 4 µg/mL | 2 µg/mL | 0.5 µg/mL | 1 µg/mL | 1 µg/mL |  |  |  | 
7 | CCCCCCCCOc1ccc(C(=O)N[C@@H](Cc2c[nH]c3ccccc23)C(=O)N[C@H](CC(N)=O)C(=O)N[C@@H](CC(=O)O)C(=O)N[C@@H]2C(=O)NCC(=O)N[C@@H](CCCN)C(=O)N[C@@H](CC(=O)O)C(=O)N[C@H](C)C(=O)N[C@@H](CC(=O)O)C(=O)NCC(=O)N[C@H](CO)C(=O)N[C@@H]([C@H](C)CC(=O)O)C(=O)N[C@@H](CC(=O)c3ccccc3N)C(=O)O[C@@H]2C)cc1 [Compound 36] |  | 4 µg/mL |  | 4 µg/mL | 1.00 µg/mL |  |  | 0.5 µg/mL | 0.5 µg/mL | 0.5 µg/mL | 0.25 µg/mL | 0.25 µg/mL
8 | CCCC1CCC(c2ccc(C(=O)N[C@@H](Cc3c[nH]c4ccccc34)C(=O)N[C@H](CC(N)=O)C(=O)N[C@@H](CC(=O)O)C(=O)N[C@@H]3C(=O)NCC(=O)N[C@@H](CCCN)C(=O)N[C@@H](CC(=O)O)C(=O)N[C@H](C)C(=O)N[C@@H](CC(=O)O)C(=O)NCC(=O)N[C@H](CO)C(=O)N[C@@H]([C@H](C)CC(=O)O)C(=O)N[C@@H](CC(=O)c4ccccc4N)C(=O)O[C@@H]3C)cc2)CC1 (single isomer, unassigned) [53 isomer II] | 1 µg/mL | 4 µg/mL | 1 µg/mL | 4 µg/mL | 2 µg/mL | 1 µg/mL | 0.5 µg/mL | 1 µg/mL |  |  |  | 
9 | CCCOc1ccc(-c2ccc(C(=O)N[C@@H](Cc3c[nH]c4ccccc34)C(=O)N[C@H](CC(N)=O)C(=O)N[C@@H](CC(=O)O)C(=O)N[C@@H]3C(=O)NCC(=O)N[C@@H](CCCN)C(=O)N[C@@H](CC(=O)O)C(=O)N[C@H](C)C(=O)N[C@@H](CC(=O)O)C(=O)NCC(=O)N[C@H](CO)C(=O)N[C@@H]([C@H](C)CC(=O)O)C(=O)N[C@@H](CC(=O)c4ccccc4N)C(=O)O[C@@H]3C)cc2)cc1 [Compound 59] | 4 µg/mL | >32 µg/mL | 4 µg/mL | 32 µg/mL | 4 µg/mL | 0.5 µg/mL | 0.5 µg/mL | 4 µg/mL |  |  |  | 
10 | CCCCCCCCCCCCCC(=O)N[C@@H](Cc1c[nH]c2ccccc12)C(=O)N[C@H](CC(N)=O)C(=O)N[C@@H](CC(=O)O)C(=O)N[C@@H]1C(=O)NCC(=O)N[C@@H](CCCN)C(=O)N[C@@H](CC(=O)O)C(=O)N[C@H](C)C(=O)N[C@@H](CC(=O)O)C(=O)NCC(=O)N[C@H](CO)C(=O)N[C@@H]([C@H](C)CC(=O)O)C(=O)N[C@@H](CC(=O)c2ccccc2N)C(=O)O[C@@H]1C [Compound 6] | 0.25 µg/mL | 4 µg/mL | 0.5 µg/mL | 4 µg/mL | 2 µg/mL | 0.25 µg/mL | 1 µg/mL | 16 µg/mL |  |  |  | 
11 | CC(C)Cc1ccc(C(C)C(=O)N[C@@H](Cc2c[nH]c3ccccc23)C(=O)N[C@H](CC(N)=O)C(=O)N[C@@H](CC(=O)O)C(=O)N[C@@H]2C(=O)NCC(=O)N[C@@H](CCCN)C(=O)N[C@@H](CC(=O)O)C(=O)N[C@H](C)C(=O)N[C@@H](CC(=O)O)C(=O)NCC(=O)N[C@H](CO)C(=O)N[C@@H]([C@H](C)CC(=O)O)C(=O)N[C@@H](CC(=O)c3ccccc3N)C(=O)O[C@@H]2C)cc1 (single isomer, unassigned) [45 isomer I] | >32 µg/mL | >32 µg/mL | >32 µg/mL | >32 µg/mL | >32 µg/mL | 8 µg/mL | 8 µg/mL | 32 µg/mL |  |  |  | 
12 | CC(C)CCCCCCCCCCC(=O)N[C@@H](Cc1c[nH]c2ccccc12)C(=O)N[C@H](CC(N)=O)C(=O)N[C@@H](CC(=O)O)C(=O)N[C@@H]1C(=O)NCC(=O)N[C@@H](CCCN)C(=O)N[C@@H](CC(=O)O)C(=O)N[C@H](C)C(=O)N[C@@H](CC(=O)O)C(=O)NCC(=O)N[C@H](CO)C(=O)N[C@@H]([C@H](C)CC(=O)O)C(=O)N[C@@H](CC(=O)c2ccccc2N)C(=O)O[C@@H]1C [Compound 11] | 1 µg/mL | 16 µg/mL | 1 µg/mL | 4 µg/mL | 0.5 µg/mL | 0.25 µg/mL | 0.125 µg/mL | 1 µg/mL |  |  |  | 
